# Counter-ions that a name gives are not always drawn.
# Columns and labels:
# [1] = tested on: NGF-induced mechanical hyperalgesia; assay: NGF-induced mechanical hyperalgesia in rats (pressure analgesy-meter, paw withdrawal threshold); format: in vivo, rat
# Method: In order to induce a pain-related behavior (withdrawal behavior), NGF was injected into the plantar area of the left hind paw of rats and the thermal latencies/mechanical thresholds were measured. The effects of Compound A on these withdrawal behaviors were investigated. At 2 days before the injection of NGF, the thermal latencies or mechanical thresholds were measured for acclimation to the experimental environment. On the day before injection of NGF, body weights and values of the thermal latencies or mechanical thresholds were obtained. 50 μL of NGF solution was injected intraplantar to left hind paw of rats. 0.5 μg/site of NGF was selected in the evaluation of thermal stimuli and 1 μg/site was selected in that of mechanical stimuli. A monohydrochloride of Compound A (1, 3, or 10 mg/kg) was administered orally at the same time as the NGF injection. The latencies to thermal stimuli were measured at 3 and 6 hours after injection of NGF solution, and the thresholds to mechanical stimuli were measured at 1, 3 and 6 hours after injection of NGF solution. The evaluation was performed as a blind test of each group. The mechanical threshold was measured using a pressure analgesy-meter. A mechanical stimulus (pressure) increased at a constant rate was added to the hind paw, and the pressure under load until animals withdrew its hind paw or vocalization was recorded as the mechanical threshold (mmHg).
# [2] = tested on: NGF-induced thermal hyperalgesia; assay: NGF-induced thermal hyperalgesia in rats (plantar test, paw withdrawal latency); format: in vivo, rat
# Method: In order to induce a pain-related behavior (withdrawal behavior), NGF was injected into the plantar area of the left hind paw of rats and the thermal latencies/mechanical thresholds were measured. The effects of Compound A on these withdrawal behaviors were investigated. At 2 days before the injection of NGF, the thermal latencies or mechanical thresholds were measured for acclimation to the experimental environment. On the day before injection of NGF, body weights and values of the thermal latencies or mechanical thresholds were obtained. 50 μL of NGF solution was injected intraplantar to left hind paw of rats. 0.5 μg/site of NGF was selected in the evaluation of thermal stimuli and 1 μg/site was selected in that of mechanical stimuli. A monohydrochloride of Compound A (1, 3, or 10 mg/kg) was administered orally at the same time as the NGF injection. The latencies to thermal stimuli were measured at 3 and 6 hours after injection of NGF solution, and the thresholds to mechanical stimuli were measured at 1, 3 and 6 hours after injection of NGF solution. The evaluation was performed as a blind test of each group. The thermal latency was measured using a plantar test apparatus. An infrared heat stimuli was delivered to the plantar area of the hind paw and the time to withdraw the paw from the heat source was recorded automatically as the thermal latency. The measurement was performed 5 times for both hind paws of each animal, the averages of the last 3 values in each hind paw were accounted as the thermal latencies of each animal. The measurement for acclimation was performed only 3 times.
# [3] = 1 mg/kg oral, right hind paw (uninjected side), 3 hr
# [4] = 1 mg/kg oral, right hind paw (uninjected side), 6 hr
# [5] = 1 mg/kg oral, right hind paw (uninjected side), pre
# [6] = 3 mg/kg oral, right hind paw (uninjected side), 3 hr
# [7] = 3 mg/kg oral, right hind paw (uninjected side), 6 hr
# [8] = 3 mg/kg oral, right hind paw (uninjected side), pre
# [9] = 10 mg/kg oral, right hind paw (uninjected side), 3 hr
# [10] = 10 mg/kg oral, right hind paw (uninjected side), 6 hr
# [11] = 10 mg/kg oral, right hind paw (uninjected side), pre
smiles,measurement,setting,value
C[C@@H](C(=O)N(C)c1ccc2cc(-c3n[nH]c4c3CCC(C)(C)C4)[nH]c2c1)N1CCOCC1 [Compound A•HCl],Paw Withdrawal Threshold (mmHg),"[1]; 1 mg/kg oral, left hind paw (injected side, NGF 1 μg/site), 1 hr",107 ± 17 mmHg
same,Paw Withdrawal Threshold (mmHg),"[1]; 1 mg/kg oral, left hind paw (injected side, NGF 1 μg/site), 3 hr",104 ± 20 mmHg
same,Paw Withdrawal Threshold (mmHg),"[1]; 1 mg/kg oral, left hind paw (injected side, NGF 1 μg/site), 6 hr",90 ± 11 mmHg
same,Paw Withdrawal Threshold (mmHg),"[1]; 1 mg/kg oral, left hind paw (injected side, NGF 1 μg/site), Pre",126 ± 21 mmHg
same,Paw Withdrawal Threshold (mmHg),"[1]; 1 mg/kg oral, right hind paw (uninjected side), 1 hr",134 ± 16 mmHg
same,Paw Withdrawal Threshold (mmHg),[1]; [3],135 ± 21 mmHg
same,Paw Withdrawal Threshold (mmHg),[1]; [4],133 ± 9 mmHg
same,Paw Withdrawal Threshold (mmHg),[1]; [5],132 ± 15 mmHg
same,Paw Withdrawal Threshold (mmHg),"[1]; 3 mg/kg oral, left hind paw (injected side, NGF 1 μg/site), 1 hr",118 ± 17 mmHg
same,Paw Withdrawal Threshold (mmHg),"[1]; 3 mg/kg oral, left hind paw (injected side, NGF 1 μg/site), 3 hr",121 ± 21 mmHg
same,Paw Withdrawal Threshold (mmHg),"[1]; 3 mg/kg oral, left hind paw (injected side, NGF 1 μg/site), 6 hr",106 ± 11 mmHg
same,Paw Withdrawal Threshold (mmHg),"[1]; 3 mg/kg oral, left hind paw (injected side, NGF 1 μg/site), Pre",152 ± 26 mmHg
same,Paw Withdrawal Threshold (mmHg),"[1]; 3 mg/kg oral, right hind paw (uninjected side), 1 hr",133 ± 19 mmHg
same,Paw Withdrawal Threshold (mmHg),[1]; [6],141 ± 10 mmHg
same,Paw Withdrawal Threshold (mmHg),[1]; [7],144 ± 23 mmHg
same,Paw Withdrawal Threshold (mmHg),[1]; [8],148 ± 25 mmHg
same,Paw Withdrawal Threshold (mmHg),"[1]; 10 mg/kg oral, left hind paw (injected side, NGF 1 μg/site), 1 hr",130 ± 20 mmHg
same,Paw Withdrawal Threshold (mmHg),"[1]; 10 mg/kg oral, left hind paw (injected side, NGF 1 μg/site), 3 hr",134 ± 22 mmHg
same,Paw Withdrawal Threshold (mmHg),"[1]; 10 mg/kg oral, left hind paw (injected side, NGF 1 μg/site), 6 hr",130 ± 18 mmHg
same,Paw Withdrawal Threshold (mmHg),"[1]; 10 mg/kg oral, left hind paw (injected side, NGF 1 μg/site), Pre",136 ± 17 mmHg
same,Paw Withdrawal Threshold (mmHg),"[1]; 10 mg/kg oral, right hind paw (uninjected side), 1 hr",144 ± 14 mmHg
same,Paw Withdrawal Threshold (mmHg),[1]; [9],139 ± 17 mmHg
same,Paw Withdrawal Threshold (mmHg),[1]; [10],139 ± 13 mmHg
same,Paw Withdrawal Threshold (mmHg),[1]; [11],139 ± 17 mmHg
same,Paw Withdrawal Latency,"[2]; 1 mg/kg oral, left hind paw (injected side, NGF 0.5 μg/site), 3 hr",10.0 ± 2.6 s
same,Paw Withdrawal Latency,"[2]; 1 mg/kg oral, left hind paw (injected side, NGF 0.5 μg/site), 6 hr",8.7 ± 2.0 s
same,Paw Withdrawal Latency,"[2]; 1 mg/kg oral, left hind paw (injected side, NGF 0.5 μg/site), pre",11.4 ± 1.2 s
same,Paw Withdrawal Latency,[2]; [3],10.9 ± 1.4 s
same,Paw Withdrawal Latency,[2]; [4],10.8 ± 2.4 s
same,Paw Withdrawal Latency,[2]; [5],11.6 ± 1.1 s
same,Paw Withdrawal Latency,"[2]; 3 mg/kg oral, left hind paw (injected side, NGF 0.5 μg/site), 3 hr",10.3 ± 1.6 s
same,Paw Withdrawal Latency,"[2]; 3 mg/kg oral, left hind paw (injected side, NGF 0.5 μg/site), 6 hr",9.9 ± 1.5 s
same,Paw Withdrawal Latency,"[2]; 3 mg/kg oral, left hind paw (injected side, NGF 0.5 μg/site), pre",11.2 ± 1.9 s
same,Paw Withdrawal Latency,[2]; [6],12.3 ± 2.2 s
same,Paw Withdrawal Latency,[2]; [7],11.9 ± 1.9 s
same,Paw Withdrawal Latency,[2]; [8],11.6 ± 1.5 s
same,Paw Withdrawal Latency,"[2]; 10 mg/kg oral, left hind paw (injected side, NGF 0.5 μg/site), 3 hr",11.6 ± 2.4 s
same,Paw Withdrawal Latency,"[2]; 10 mg/kg oral, left hind paw (injected side, NGF 0.5 μg/site), 6 hr",11.3 ± 1.4 s
same,Paw Withdrawal Latency,"[2]; 10 mg/kg oral, left hind paw (injected side, NGF 0.5 μg/site), pre",12.0 ± 1.1 s
same,Paw Withdrawal Latency,[2]; [9],11.9 ± 2.7 s
same,Paw Withdrawal Latency,[2]; [10],11.5 ± 1.2 s
same,Paw Withdrawal Latency,[2]; [11],11.9 ± 1.2 s

# From patent publication US11464782B2, “Method of treating pain or interstitial cystitis using indole compound” (Japan Tobacco Inc., priority 2018, dated 2022)
